We go through four compounds from patent US20050203013A1, “Methods for inhibiting vascular permeability” (priority 2002, published 2005).

The subject of assay [1] is skin vessel permeability. Nature of the assay: Duration of exposure: Alzet pump endostatin, skin vessel permeability. The assay is classed as in vivo, mice (SCID). Here is the method:
In order to test if continuous exposure to the antiangiogenic factor (endostatin) is required to repress blood vessel permeability, mice (SCID) were anesthetized and “Alzet” pumps loaded with the antiangiogenic factor or saline were implanted intraperitoneally. The pumps release 1 μl the antiangiogenic factor per hour. Skin vessel permeability using Evans Blue dye was performed as described above. Saline and the antiangiogenic factor treated mice were examined 2, 3 and 4 days after pump implantation, as described above (FIG. 3). […] In both groups, PAF injection induced higher vessel permeability than saline injection. […] However, in both groups PAF injection induced higher vessel permeability than saline injection. […] Since the tumor vessels are continuously permeabilized and plasma proteins contained within the tumor support its vascularization the anti-permeability effect of the antiangiogenic factor offers a possible mechanism for its anti-tumor activity.

Assay [2] deals with lung tissue. Nature of the assay: Swelling of lung tissue induced by micro-encapsulated VEGF-producing cells. The assay is classed as in vivo, Mice. Conditions: VEGF producing cells together with endostatin producing cells, 0.5x10^6 encapsulated cells of each. From the text:
Dilation of the lung tissue may result in lung dysfunction and development of pulmonary hypertension. Mice injected with micro-encapsulated cells producing VEGF (approximately 0.5×10^6 cells per mouse) developed thickened lung parenchyma 5 days after injection. At a higher magnification we observed generation of several cell layers between the alveoli compared with one layer of cells in mice injected with micro-encapsulated control cells or with micro-encapsulated cells producing endostatin (Endost). […] Moreover, treatment with endostatin reduced the number of cell layers between the alveoli and the lungs of mice that were treated with endostatin appeared similar to control mice. Therefore, endostatin appears to block the swelling of lung tissue and may be used for treatment of pulmonary hypertension.

Assay [3] relates to histamine-induced local edema. Nature of the assay: Histamine-induced wheal and flare test. The assay is classed as in vivo. Conditions: humans receiving the factor. Here is the method:
Antiangiogenic treatment has entered into clinical trials recently. Molecules that are tested in phase 1 and 2 clinical trials include endostatin, angiostatin, TNP-470, thalidomide, anti-VEGF antibodies, PTK787, SU-5416, SU-6668 and others. […] Mice that received endostatin for several days had lower diffusion of Evans blue from the skin capillaries in response to intradermal VEGF and PAF injection compared with normal mice. The existing test of histamine-induced wheal and flare in skin can be used in order to test bioactivity of endostatin and other antiangiogenic factors. Intradermal injection of histamine leads to the formation of local adema ([…]) due to blood vessel hyperpermiability. […] This test will serve as an early surrogate marker for the bioactivity of endostatin and other antiangiogenic factors and help to determine the treatment's efficiency in individual patients.

Assay [4] concerns skin capillary permeability. Nature of the assay: Evans Blue skin permeability assay, intradermal PAF, endostatin-treated mice. The assay is classed as in vivo. To be noted: Nude mice. As to the method:
(§1) The antiangiogenic factor (endostatin) was injected intraperitoneally to FVB/NJ mice for 4 days. Immediately after the last injection, mice were anasthesized and received intravenous injection of 100 μl Evans Blue dye (1% in PBS). Subsequently, different amounts of VEGF165, VEGF121 or saline were injected intradermaly. After 20 minutes, mice were sacrificed and skin flap from the back was removed and photographed. Skin samples from the injection sites were excised and incubated in formamide for 5 days in order to extract the dye and O.D. was measured at 620 nm. […] Quantitative analysis of Evans Blue dye extravasation (FIG. 1) confirmed the lower skin capillary permeability of the antiangiogenic factor-treated mice and indicated the weak permeability-inducing effect of VEGF in these mice.
In order to test if the effects of the antiangiogenic factor (endostatin) on vascular permeability is VEGF-specific, we have tested the effects of intradermal injection of platelet-activating factor (PAF) in Nude mice that were previously injected with the antiangiogenic factor and in control mice, as described above. […] Quantitative analysis of Evans Blue dye extravasation (FIG. 2) confirmed the lower skin capillary permeability of the antiangiogenic factor-treated mice compared with control and the lack of PAF-induced hyperpermeability in these mice. […]

In assay [5] the test system is Bovine capillary endothelial cells (BCE). As to the kind of experiment: In vitro diffusion of FITC-dextran through endothelial cell monolayer (Transwells). The assay is classed as cell-based. As to the method:
The effects of the antiangiogenic factor (endostatin) on skin vessel permeability in vivo were tested in an in vitro diffusion model designed to mimic blood vessel permeability. Bovine capillary endothelial cells (BCE) were seeded in collagen coated inserts of “Transwells” and grown to confluence. The antiangiogenic factor was added every 24 hours. Four days later the inserts were washed with BCE culture medium and the following tracers and permeability regulators were added to the inserts. Half of the inserts received 5 mg/ml FITC-labeled dextran 10 kDa and the other half received 5 mg/ml FITC-labeled dextran 70 kDa. In addition, some inserts received 50 ng/ml VEGF165 or 100 nM PAF. Control inserts received BCE culture medium with fluorescent tracers only. The fluorescence in the lower wells was measured after 10, 20, 30, 45 and 60 minutes by transferring the inserts into new wells.
In order to follow the kinetic of the diffusion process, the flow of the tracer was calculated as fluorescent counts per minute (FIGS. 5 and 6). […] In contrast, the flow in control cells was constant and was lower than that observed in PAF and VEGF165-treated cells.

For assay [6] the test system is unchanged. Nature of the assay: Immunostaining of tight junction proteins in BCE, endostatin. The assay is classed as cell-based. As to the method: Bovine capillary endothelial cells (BCE) were cultured in the presence of 0.2, 0.5 and 2 μg/ml human endostatin for three days. The cells were fixed and immunostained with anti-β-catenin, occludin, and ZO-1 antibodies (Zymed Laboratories, CA). The staining was developed using FITC-conjugated secondary antibodies and visualized under fluorescent microscopy. Immunostaining for β-catenin marked the cell borders and was more intense when two cells contacted each other. […] There was no difference in β-catenin staining between 0.5 and 2.0 μg/ml endostatin. […] Similar results were obtained with ZO-1 immunostaining. […] This is the first documentation of the effects of endostatin on tight junctions that may explain, in part, the mechanism of its antiangiogenic activities. Similar experiments were performed in which BCE were incubated in the presence and absence of 0.5 μg/ml endostatin for 3 days followed by stimulation with PAF for 20 minutes. The cells were fixed and immunostained with anti-α-catenin, occludin, and ZO-1 antibodies (Zymed Laboratories, CA), as described above.

The subject of assay [7] is skin capillary permeability. Nature of the assay: Evans Blue skin permeability assay, intradermal VEGF, endostatin-treated mice. The assay is classed as in vivo. Conditions: FVB/NJ mice, i.p. for 4 days. Here is the method: as §1
Assay [8] deals with skin vessel permeability. Nature of the assay: Miles vascular permeability assay (Example 3). In kind it is in vivo, SCID mice. As to the method:
SCID mice were injected subcutaneously (s.c.) with TNP-470 or HPMA copolymer-TNP-470 (30 mg/Kg TNP-equiv.) for three days, with Y27632 (50 nM s.c.) for 11 days, with angiostatin (200 mg/kg/day s.c.) for five days, or with saline (250 μl s.c.) for 5 days (n=12) prior to performing the Miles assay ([…] et al., 1996; Miles and Miles, 1952; Streit et al., 2000). Briefly, Evan's blue dye (100 μl of a 1% solution in 0.9% NaCl) was injected intravenously (i.v.) into mice. After 10 minutes, 50 μl of human VEGF165 (1 ng/μl), PAF (100 μM), CNF-1 (100 ng), histamine (1.2 μg/ml) or PBS (50 ul) were injected intradermally into the pre-shaved back skin. After 20 minutes, the animals were euthanized and an area of skin that included the blue spot resulting from leakage of the dye was removed. Evan's blue dye was extracted from the skin by incubation with formamide for 5 days at room temperature, and the absorbance of extracted dye was measured at 620 nm using a spectrophotometer. The unpaired Student t test was used for statistical analysis.

Assay [9] has as its system VEGF induced vessel permeability. Nature of the assay: Miles assay (Example 2), VEGF165 challenge. In kind it is in vivo, mice. As to the method:
One of the problems with angiogenesis-dependent diseases is increased vessel permeability (due to high levels of VPF) which results in edema and loss of proteins. A decrease in vessel permeability is beneficial in those diseases. […] Briefly, a dye, Evans Blue (1% in PBS), was injected i.v. to anesthesized mice. After 10 min, human recombinant VEGF165 (50 ng/50 μl) was injected intradermally into the back skin. Leakage of protein-bound dye was detected as blue spots on the underside of the back skin surrounding the injection site. After 20 min mice were euthanized. Then, the skin was excised, left in formamide for 5 days to be extracted and the solution read at 620 nm. Putative angiogenesis inhibitors such as free and conjugated TNP-470 were injected daily 3 days (30 mg/kg/day) prior to the VEGF challenge. The same was repeated on tumor-bearing mice to evaluate the effect of angiogenesis inhibitors on tumor vessel permeability.

Assay [10] has as its system U87 glioblastoma tumor blood vessel permeability. Nature of the assay: Miles assay on tumor-bearing mice (Example 3), U87. Also noted: species or system SCID mice. Conditions: mouse, in vivo. Here is the method:
Female SCID mice ( 8 weeks, 20 g) were inoculated s.c. with 5×10^6 viable U87 glioblastoma cells or viable A2058 human melanoma cells or BXPC3 pancreas adenocarcinoma cells. Female nu/nu mice were inoculated with MCF-7 or MDA-MB-231 breast carcinoma cells in the mammary fat pad. C57B1/6J were inoculated with LLC. […] blue dye was then injected i.v. and extravasation of dye assessed as above. Also, blood was withdrawn to measure VPF/VEGF levels in plasma and in tumors (n=5 from each group). Tumors (n=5 per group) were dissected, weighed and cut in half. Half of the tumor was placed in formalin and half was analyzed for VPF/VEGF protein by ELISA (see below). Formalin fixed tumors were processed for sectioning and staining with H & E, CD31, smooth muscle actin (SMA) and proliferating cell nuclear antigen (PCNA) according to the manufacturers' instructions.

As for endostatin, the “duration of treatment required to reduce skin vessel permeability” value in assay [1] (SCID mice, intraperitoneal Alzet pump) is recorded as “at least 3 days”. Besides, the “blood vessel permeability in response to PAF injection vs saline treated mice” value in assay [1] (day two after pump implantation) is “no significant difference”. Further, in assay [2], the “lung tissue appearance (cell layers, extracellular matrix)” value was “fewer cell layers and no accumulation of extracellular matrix”. Further, in assay [3], the “zone of edema after intradermal histamine” value is given as “reduced zone of edema”. Moreover, the PAF-induced vascular permeability result in [4] was “repressed”. Also, the “flow of the tracer (fluorescent counts per minute)” value in [5] (10 kDa and 70 kDa dextrans) was “significant reduced flow”. The “sum of fluorescent count over 60 minutes” value in [5] (BCE monolayer pre-treated 4 days, FITC-dextran 10 kDa and 70 kDa, vs control, VEGF165- and PAF-treated cells) is “significantly lower fluorescent counts”. The “cell boundary β-catenin staining” value is “intensified” in assay [6] (0.2 μg/ml, three days) and “further intensified” in assay [6] (0.5 μg/ml, three days). In addition, the “PAF reduction of staining intensity of anti-α-catenin, occludin and ZO-1” value in [6] (0.5 μg/ml for 3 days, then PAF for 20 minutes) was “not in endostatin-treated cells”. For the same compound, in [6] (0.2-2.0 μg/ml, three days), the ZO-1 immunostaining entry is recorded as “Cells boundaries were only visible”. Also, the occludin immunostaining result in assay [6] (0.5 and 2.0 μg/ml, three days) was “cell boundaries were observed”. Moreover, in assay [7] (intradermal VEGF165/VEGF121), the “VEGF-induced hyperpermeability (Evans Blue extravasation)” value is recorded as “minor induction of hyperpermeability”. For the same compound, the “Evans Blue dye leakage from skin capillaries” value in [7] (vs control mice) is on record as “overall lower dye leakage than the control”.
For `O=C1CCC(N2C(=O)c3ccccc3C2=O)C(=O)N1` (stereo not shown) [Thalidomide], the “effect on VPF/VEGF-induced vessel permeability” value in [8] (VPF/VEGF intradermal) is reported as “no significant effect”. Further, the “effect on VEGF induced vessel permeability” value in assay [9] was “no effect”.
As for angiostatin, the “decrease of PAF-induced permeability” value in assay [8] (PAF intradermal) is on record as 37%. Besides, the “inhibition of Evan's blue dye extravasation from VPF/VEGF injection sites” value in assay [8] (VPF/VEGF intradermal) is reported as 40%. Moreover, the “decrease of histamine-induced permeability” value in [8] (histamine intradermal) was 51%. The “Evan's blue extravasation into U87 glioblastomas” value in assay [10] was “did not inhibit”.
As for `C[C@@H](N)[C@H]1CC[C@H](C(=O)Nc2ccncc2)CC1` [Y27632], the “CNF-1-induced Evan's blue-albumin extravasation” value in [8] (CNF-1 intradermal) is recorded as “inhibited”. Besides, the “effect on VPF/VEGF-induced vessel permeability” value in [8] (VPF/VEGF intradermal) is listed as “inhibited”.
